2 molecules from ChEMBL document CHEMBL1150486, “Dihydro-imidazolone derivatives as angiotensin II receptor antagonists: chiral effect on the activity” (Bioorg Med Chem Lett, 1994) can be followed below.

The IC50 is the concentration that gives 50% inhibition. Low values mean inhibition by little substance, high ones a need for much substance.

For test [1], the target named is T1, Type-1 angiotensin II receptor B (Rattus norvegicus, UniProt P29089).
T1 sequence (P29089 whole entry): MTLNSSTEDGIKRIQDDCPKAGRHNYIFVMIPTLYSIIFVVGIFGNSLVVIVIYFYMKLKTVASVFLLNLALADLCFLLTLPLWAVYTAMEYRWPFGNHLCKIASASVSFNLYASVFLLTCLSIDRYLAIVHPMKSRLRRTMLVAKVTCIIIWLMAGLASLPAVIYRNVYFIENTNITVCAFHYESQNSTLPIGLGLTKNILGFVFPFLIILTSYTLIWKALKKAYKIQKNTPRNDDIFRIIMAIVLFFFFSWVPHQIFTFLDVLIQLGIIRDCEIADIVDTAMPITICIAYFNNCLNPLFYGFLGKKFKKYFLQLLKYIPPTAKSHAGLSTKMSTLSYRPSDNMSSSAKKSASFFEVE
Put plainly: In vitro binding affinity at Angiotensin II receptor, type 1 from rat liver membrane by [125I]- A II displacement.

The species entered for a further test is Oryctolagus cuniculus. Put plainly: Antagonism of the AII induced contraction of rabbit aortic tissue in a functional assay. The conditions noted are these: Aorta.

The structures appear in SMILES notation.

Turning to `CCCCC1=NC(C)(C2CCCC2)C(=O)N1Cc1ccc(-c2ccccc2C(=O)O)cc1` (centres undefined), the IC50 was found to be 3.3 nM in test [1] and 9.6 nM in the test filed under Oryctolagus cuniculus.
On the same counts, the results for `CCCCC1=NC(C)(c2ccccc2)C(=O)N1Cc1ccc(-c2ccccc2C(=O)O)cc1` (centres undefined) are 19 nM and 130 nM.
